Measured values reported in ChEMBL document CHEMBL1201862, “PubChem BioAssay data set” (2004).
Calls of active or inactive are those of the source.

Experiments:
[1] = target: T1, Voltage-gated N-type calcium channel alpha-1B subunit/Amyloid beta A4 precursor protein-binding family A member 1 (Homo sapiens, UniProt Q00975+Q02410); assay type: protein assay
[2] = target: T1, Voltage-gated N-type calcium channel alpha-1B subunit/Amyloid beta A4 precursor protein-binding family A member 1; assay type: protein assay; remark: listed apart in the source
[3] = target: T2, Delta-type opioid receptor (Homo sapiens, UniProt P41143); assay: HTS Image-Based Screen for Agonists of the DOR Receptor. [Related pubchem assays (depositor defined):AID1777, AID1786, AID2133]; assay type: functional
[4] = fluconazole-exposed Candida albicans growth modulators – fluorescence, retest, confirmation (AID 2467); assay type: functional, cell-based
Mu-type opioid receptor = Mu-type opioid receptor (Homo sapiens, UniProt P35372); assay: HTS Image-Based Screen for Agonists of the MOR Receptor. [Related pubchem assays (depositor defined):AID1777, AID1785, AID1786, AID2133]; assay type: functional;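 further: imaging of beta-arrestin GFP recruitment into spots after receptor activation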
[5] = target: T3, Kappa-type opioid receptor (Homo sapiens, UniProt P41145); assay type: functional
T3 sequence (P41145 whole entry): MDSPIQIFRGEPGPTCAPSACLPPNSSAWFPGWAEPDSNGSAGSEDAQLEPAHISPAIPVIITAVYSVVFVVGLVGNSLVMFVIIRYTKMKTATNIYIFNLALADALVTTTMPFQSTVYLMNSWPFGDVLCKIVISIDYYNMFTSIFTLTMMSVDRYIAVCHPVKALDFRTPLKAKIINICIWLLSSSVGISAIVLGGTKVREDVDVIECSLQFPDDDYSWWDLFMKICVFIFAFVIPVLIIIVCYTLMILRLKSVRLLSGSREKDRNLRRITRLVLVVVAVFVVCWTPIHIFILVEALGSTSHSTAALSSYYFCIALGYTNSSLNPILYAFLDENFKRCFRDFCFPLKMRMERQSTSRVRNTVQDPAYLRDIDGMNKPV

[6] = NIH3T3 cell viability loss – ATP luminescence, mouse fibroblasts, counter-screen, dose response (AID 2010); assay type: functional, cell-based;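 further: cells exposed to compound for about 90 hours before reading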
[7] = NIH-3T3 fibroblast cytotoxicity, dose response, cytotoxicity control, cell-based, fluorescence, Alamar Blue, secondary assay (AID 2327); assay type: functional;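 further: NIH-3T3 mouse fibroblasts cultured with fluconazole at 8 µg/mL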
[8] = Trypanosoma cruzi growth suppression in host cells – NIH3T3 host cells, beta-gal luminescence, confirmation (AID 2044); assay type: functional, cell-based;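 further: intracellular parasites grown in NIH/3T3 mouse fibroblasts as host cells; luminescent beta-galactosidase reporter signal from transgenic T. cruzi replicating inside host cells; inhibitors lower the luminescence signal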
[9] = target: T3, Kappa-type opioid receptor; assay type: functional; remark: listed apart in the source
[10] = target: T2, Delta-type opioid receptor; assay: HTS Image-Based Screen for Antagonists of the DOR Receptor. [Related pubchem assays (depositor defined):AID1777, AID1785, AID1786, AID2133]; assay type: functional
[11] = bead-based luminescence quenchers, dual-tagged ARNT – biochemical, AlphaScreen, cherry-pick, artefact control for ARNT-TACC3 interaction inhibitor project, dose response (AID 651705); assay type: functional;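 further: AlphaScreen bead proximity signal that flags compounds interfering with the detection technology; potency reflects signal decrease which marks the compound as an assay artifact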
Beta-galactosidase = Beta-galactosidase (Escherichia coli, UniProt Q8VNN2); assay type: functional
[12] = viability loss in THP-1 monocytes – THP-1 cells, cytotoxicity control for Vif-APOBEC3G degradation inhibitor project, dose response (AID 1117359); assay type: functional; conditions: THP-1
SUMO-activating enzyme = SUMO-activating enzyme (Homo sapiens, UniProt Q9UBT2); assay: blockers of UBC9-mediated SUMO conjugation – biochemical, AlphaScreen, SUMOylation inhibitor project, confirmation (AID 2018); assay type: functional
Sequence of SUMO-activating enzyme (Q9UBE0 whole entry, the tested form may be a part): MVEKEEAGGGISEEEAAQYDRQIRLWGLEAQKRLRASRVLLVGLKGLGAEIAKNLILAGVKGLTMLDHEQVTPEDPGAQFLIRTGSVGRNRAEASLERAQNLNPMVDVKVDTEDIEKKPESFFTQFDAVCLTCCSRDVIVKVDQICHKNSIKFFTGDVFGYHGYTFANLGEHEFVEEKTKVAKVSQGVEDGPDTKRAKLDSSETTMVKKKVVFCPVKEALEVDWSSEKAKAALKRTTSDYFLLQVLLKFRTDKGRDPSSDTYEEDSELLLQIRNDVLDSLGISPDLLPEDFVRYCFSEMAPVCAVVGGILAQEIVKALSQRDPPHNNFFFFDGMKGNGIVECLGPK
Sequence of SUMO-activating enzyme (Q9UBT2 whole entry, the tested form may be a part): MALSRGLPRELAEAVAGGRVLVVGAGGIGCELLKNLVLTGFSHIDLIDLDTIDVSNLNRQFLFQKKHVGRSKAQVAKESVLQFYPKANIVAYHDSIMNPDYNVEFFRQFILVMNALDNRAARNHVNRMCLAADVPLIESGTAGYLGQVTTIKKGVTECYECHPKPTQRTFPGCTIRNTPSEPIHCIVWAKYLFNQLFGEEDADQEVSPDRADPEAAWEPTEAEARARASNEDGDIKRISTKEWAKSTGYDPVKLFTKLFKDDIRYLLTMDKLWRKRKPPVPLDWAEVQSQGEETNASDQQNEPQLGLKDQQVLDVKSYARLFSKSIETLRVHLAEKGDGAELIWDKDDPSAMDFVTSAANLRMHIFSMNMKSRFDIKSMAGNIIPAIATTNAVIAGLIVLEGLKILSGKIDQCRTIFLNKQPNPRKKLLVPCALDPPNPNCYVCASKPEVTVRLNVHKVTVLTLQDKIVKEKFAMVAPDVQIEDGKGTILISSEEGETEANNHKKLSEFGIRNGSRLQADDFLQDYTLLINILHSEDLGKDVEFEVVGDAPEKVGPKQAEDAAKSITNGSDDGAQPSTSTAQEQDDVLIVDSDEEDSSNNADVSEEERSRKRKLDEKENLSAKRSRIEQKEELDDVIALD

[13] = target: T4, Hepatocyte nuclear factor 4-alpha (Homo sapiens, UniProt P41235); assay type: functional, cell-based;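 further: biochemical luminescence-based dose-response counterscreen measuring inhibition of HNF4 dimerization, run alongside a screen for blockers of ABHD5–perilipin-5 interaction; split luciferase complementation of HNF4 fusion proteins in cell lysate measuring dimerization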
T4 sequence (P41235 whole entry): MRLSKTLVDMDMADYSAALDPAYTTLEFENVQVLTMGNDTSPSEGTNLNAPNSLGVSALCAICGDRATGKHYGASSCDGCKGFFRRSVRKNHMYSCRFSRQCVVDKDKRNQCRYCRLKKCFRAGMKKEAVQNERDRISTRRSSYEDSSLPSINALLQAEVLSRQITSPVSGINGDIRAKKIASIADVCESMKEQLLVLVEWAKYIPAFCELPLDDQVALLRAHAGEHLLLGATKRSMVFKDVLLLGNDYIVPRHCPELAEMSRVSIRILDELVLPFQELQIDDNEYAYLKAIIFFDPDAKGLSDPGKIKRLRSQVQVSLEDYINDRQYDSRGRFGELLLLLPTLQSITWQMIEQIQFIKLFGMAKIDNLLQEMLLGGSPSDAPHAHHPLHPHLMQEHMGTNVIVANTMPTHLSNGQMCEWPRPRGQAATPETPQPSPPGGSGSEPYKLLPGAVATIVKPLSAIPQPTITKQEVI

[14] = target: Lysine-specific demethylase 4C (Homo sapiens, UniProt Q9H3R0); assay: inhibition of JMJD2C H3K9me3 demethylation – biochemical, DELFIA europium, cherry-picked samples, dose response (AID 488835); assay type: functional
[15] = target: T5, Calpain-2 catalytic subunit (Sus scrofa, UniProt P43367); assay: m-calpain protease blockers, concentration series – biochemical, fluorogenic peptide substrate, dose response (AID 1420); assay type: functional
T5 sequence (P43367 whole entry): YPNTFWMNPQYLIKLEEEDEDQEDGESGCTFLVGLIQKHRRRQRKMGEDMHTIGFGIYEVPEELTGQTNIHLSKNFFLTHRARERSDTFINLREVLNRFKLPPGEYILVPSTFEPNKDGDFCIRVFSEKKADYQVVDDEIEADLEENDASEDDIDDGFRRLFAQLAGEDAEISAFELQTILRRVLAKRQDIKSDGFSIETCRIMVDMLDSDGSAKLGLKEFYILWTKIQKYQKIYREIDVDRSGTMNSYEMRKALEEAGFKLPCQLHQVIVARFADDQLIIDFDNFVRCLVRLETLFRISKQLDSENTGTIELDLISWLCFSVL

[16] = target: Alkaline phosphatase, placental type (Homo sapiens, UniProt P05187); assay: human placental alkaline phosphatase inhibition – biochemical, luminescence, confirmation (AID 1512); assay type: functional
Sequence of Alkaline phosphatase, placental type (P05187 whole entry): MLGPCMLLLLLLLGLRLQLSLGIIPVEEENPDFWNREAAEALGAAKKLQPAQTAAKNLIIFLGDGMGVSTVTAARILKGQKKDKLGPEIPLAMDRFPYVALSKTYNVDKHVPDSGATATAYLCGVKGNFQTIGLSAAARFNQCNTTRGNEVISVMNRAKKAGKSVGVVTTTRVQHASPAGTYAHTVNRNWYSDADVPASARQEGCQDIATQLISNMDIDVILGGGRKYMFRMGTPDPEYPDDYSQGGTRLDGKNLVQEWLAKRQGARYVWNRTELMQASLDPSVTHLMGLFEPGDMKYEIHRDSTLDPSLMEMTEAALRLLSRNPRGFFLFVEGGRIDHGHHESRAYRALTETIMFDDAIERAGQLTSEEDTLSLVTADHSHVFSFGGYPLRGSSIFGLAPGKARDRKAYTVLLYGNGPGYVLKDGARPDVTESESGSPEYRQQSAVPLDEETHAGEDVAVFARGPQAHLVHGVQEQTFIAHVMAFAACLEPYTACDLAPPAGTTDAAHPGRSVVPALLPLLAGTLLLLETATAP

H9c2 = assay: cells; assay type: functional, cell-based; conditions: Rattus norvegicus, H9c2, Myocardium
CAAX prenyl protease 2 = target: T6, CAAX prenyl protease 2 (Saccharomyces cerevisiae S288c, UniProt Q03530); assay type: biochemical
T6 sequence (Q03530 whole entry): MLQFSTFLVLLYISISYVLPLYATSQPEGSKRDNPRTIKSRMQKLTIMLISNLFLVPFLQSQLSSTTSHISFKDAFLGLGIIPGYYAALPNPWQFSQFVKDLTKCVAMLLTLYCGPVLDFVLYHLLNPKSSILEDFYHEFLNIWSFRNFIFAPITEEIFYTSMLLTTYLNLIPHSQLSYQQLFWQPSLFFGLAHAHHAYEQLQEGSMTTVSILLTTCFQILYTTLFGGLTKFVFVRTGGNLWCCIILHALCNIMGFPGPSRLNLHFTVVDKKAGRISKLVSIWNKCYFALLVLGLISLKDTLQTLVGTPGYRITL

Trypsin = Trypsin (Sus scrofa, UniProt P00761); assay: trypsin protease activity blockade – biochemical, quenched peptide fluorescence, cherry-pick, selectivity assay for Rce1 protease inhibitor project, dose response (AID 488789)
[17] = Luminescence Cell-Based Dose Confirmation HTS to Identify Activators of 5'UTR Stem-Loop Driven Alpha-Synuclein mRNA Translation in H4 Neuroglioblastoma Cells. [Related pubchem assays: 1829 (Project Summary), 1814 (Primary HTS)]; assay type: functional
H4 = assay: Luminescence Cell-Based Dose Response HTS to Identify Activators of 5'UTR Stem-Loop Driven Prion Protein mRNA Translation in H4 Neuroglioblastoma Cells. [Related pubchem assays: 1829 (Project Summary), 1814 (Primary HTS)]; assay type: functional; conditions: Homo sapiens
[18] = Luminescence Cell-Based Dose Response HTS to Identify Activators of Luciferase Translation or Activity in H4 […] Cells. [Related pubchem assays: 1829 (Project Summary), 1814 (Primary HTS)]; assay type: functional
[19] = target: T7, Tyrosine-protein phosphatase non-receptor type 7 (Homo sapiens, UniProt P35236); assay: inhibition of hematopoietic tyrosine phosphatase HePTP – biochemical, set 2, SAR follow-up (AID 449736); assay type: functional
T7 sequence (P35236 whole entry): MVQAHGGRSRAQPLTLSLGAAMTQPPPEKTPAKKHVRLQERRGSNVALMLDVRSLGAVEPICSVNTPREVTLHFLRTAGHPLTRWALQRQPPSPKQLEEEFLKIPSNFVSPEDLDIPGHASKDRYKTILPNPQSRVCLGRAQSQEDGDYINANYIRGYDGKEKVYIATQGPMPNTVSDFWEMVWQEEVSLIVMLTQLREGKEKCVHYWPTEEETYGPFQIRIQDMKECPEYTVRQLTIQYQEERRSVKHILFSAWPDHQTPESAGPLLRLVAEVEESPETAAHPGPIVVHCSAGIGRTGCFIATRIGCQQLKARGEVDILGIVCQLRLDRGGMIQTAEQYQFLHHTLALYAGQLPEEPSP

[20] = target: T8, Corticotropin-releasing factor receptor 2/Corticotropin-releasing factor-binding protein (Homo sapiens, UniProt P24387+Q13324); assay: activators of CRF receptor 2 with binding protein – uHTS hits, confirmation (AID 602473); assay type: functional; conditions: read-out: EC50_Mean
T8 sequence (Q13324 whole entry): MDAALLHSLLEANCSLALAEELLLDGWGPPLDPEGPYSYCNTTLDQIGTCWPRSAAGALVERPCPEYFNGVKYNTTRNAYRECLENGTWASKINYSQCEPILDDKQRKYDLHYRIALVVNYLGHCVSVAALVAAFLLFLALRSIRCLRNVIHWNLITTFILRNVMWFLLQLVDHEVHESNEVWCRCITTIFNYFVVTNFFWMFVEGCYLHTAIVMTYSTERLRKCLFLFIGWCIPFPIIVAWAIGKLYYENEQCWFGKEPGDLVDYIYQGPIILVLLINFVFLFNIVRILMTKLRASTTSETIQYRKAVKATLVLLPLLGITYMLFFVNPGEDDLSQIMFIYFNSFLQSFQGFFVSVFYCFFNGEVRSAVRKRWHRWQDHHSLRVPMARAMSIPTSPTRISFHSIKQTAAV
T8 sequence (P24387 whole entry): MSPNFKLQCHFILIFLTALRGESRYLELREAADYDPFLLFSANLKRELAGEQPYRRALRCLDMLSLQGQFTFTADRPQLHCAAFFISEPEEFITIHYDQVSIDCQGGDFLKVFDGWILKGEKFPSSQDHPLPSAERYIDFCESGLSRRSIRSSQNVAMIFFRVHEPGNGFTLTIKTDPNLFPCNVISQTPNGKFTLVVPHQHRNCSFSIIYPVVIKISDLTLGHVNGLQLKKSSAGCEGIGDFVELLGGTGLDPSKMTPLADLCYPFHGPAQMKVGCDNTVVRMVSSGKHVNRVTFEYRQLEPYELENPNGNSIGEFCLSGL

[21] = target: T8, Corticotropin-releasing factor receptor 2/Corticotropin-releasing factor-binding protein; assay: Dose Response confirmation of uHTS hits for small molecule antagonists of the CRF-binding protein and CRF-R2 receptor complex.; assay type: functional; conditions: read-out: IC50_Mean
[22] = target: T9, Microphthalmia-associated transcription factor (Homo sapiens, UniProt O75030); assay: reducers of TRPM1 reporter luminescence, concentration series – cell-based, SK-MEL-5, cherry-picked, set 3, MITF inhibitor project, dose response (AID 493073); assay type: functional;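 further: SK-MEL-5 melanoma cells with luciferase driven by the MITF target TRPM1 promoter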
T9 sequence (O75030 whole entry): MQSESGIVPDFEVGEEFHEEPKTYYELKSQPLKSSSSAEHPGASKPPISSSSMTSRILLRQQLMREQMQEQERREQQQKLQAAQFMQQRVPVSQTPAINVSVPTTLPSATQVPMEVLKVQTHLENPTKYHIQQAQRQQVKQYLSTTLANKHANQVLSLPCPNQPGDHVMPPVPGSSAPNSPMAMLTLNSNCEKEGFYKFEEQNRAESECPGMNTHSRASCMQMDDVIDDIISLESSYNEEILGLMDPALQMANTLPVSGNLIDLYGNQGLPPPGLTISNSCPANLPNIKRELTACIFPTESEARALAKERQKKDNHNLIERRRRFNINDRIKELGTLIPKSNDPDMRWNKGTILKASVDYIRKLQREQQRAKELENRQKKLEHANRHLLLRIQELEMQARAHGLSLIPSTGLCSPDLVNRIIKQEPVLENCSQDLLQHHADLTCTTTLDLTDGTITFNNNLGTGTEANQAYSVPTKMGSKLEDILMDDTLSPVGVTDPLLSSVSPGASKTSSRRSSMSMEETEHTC

Nonstructural protein 1 = Nonstructural protein 1 (Influenza A virus, UniProt Q194T2); assay type: functional, Influenza A virus (A/California/07/2009(H1N1))

T1 sequence (Q00975 whole entry): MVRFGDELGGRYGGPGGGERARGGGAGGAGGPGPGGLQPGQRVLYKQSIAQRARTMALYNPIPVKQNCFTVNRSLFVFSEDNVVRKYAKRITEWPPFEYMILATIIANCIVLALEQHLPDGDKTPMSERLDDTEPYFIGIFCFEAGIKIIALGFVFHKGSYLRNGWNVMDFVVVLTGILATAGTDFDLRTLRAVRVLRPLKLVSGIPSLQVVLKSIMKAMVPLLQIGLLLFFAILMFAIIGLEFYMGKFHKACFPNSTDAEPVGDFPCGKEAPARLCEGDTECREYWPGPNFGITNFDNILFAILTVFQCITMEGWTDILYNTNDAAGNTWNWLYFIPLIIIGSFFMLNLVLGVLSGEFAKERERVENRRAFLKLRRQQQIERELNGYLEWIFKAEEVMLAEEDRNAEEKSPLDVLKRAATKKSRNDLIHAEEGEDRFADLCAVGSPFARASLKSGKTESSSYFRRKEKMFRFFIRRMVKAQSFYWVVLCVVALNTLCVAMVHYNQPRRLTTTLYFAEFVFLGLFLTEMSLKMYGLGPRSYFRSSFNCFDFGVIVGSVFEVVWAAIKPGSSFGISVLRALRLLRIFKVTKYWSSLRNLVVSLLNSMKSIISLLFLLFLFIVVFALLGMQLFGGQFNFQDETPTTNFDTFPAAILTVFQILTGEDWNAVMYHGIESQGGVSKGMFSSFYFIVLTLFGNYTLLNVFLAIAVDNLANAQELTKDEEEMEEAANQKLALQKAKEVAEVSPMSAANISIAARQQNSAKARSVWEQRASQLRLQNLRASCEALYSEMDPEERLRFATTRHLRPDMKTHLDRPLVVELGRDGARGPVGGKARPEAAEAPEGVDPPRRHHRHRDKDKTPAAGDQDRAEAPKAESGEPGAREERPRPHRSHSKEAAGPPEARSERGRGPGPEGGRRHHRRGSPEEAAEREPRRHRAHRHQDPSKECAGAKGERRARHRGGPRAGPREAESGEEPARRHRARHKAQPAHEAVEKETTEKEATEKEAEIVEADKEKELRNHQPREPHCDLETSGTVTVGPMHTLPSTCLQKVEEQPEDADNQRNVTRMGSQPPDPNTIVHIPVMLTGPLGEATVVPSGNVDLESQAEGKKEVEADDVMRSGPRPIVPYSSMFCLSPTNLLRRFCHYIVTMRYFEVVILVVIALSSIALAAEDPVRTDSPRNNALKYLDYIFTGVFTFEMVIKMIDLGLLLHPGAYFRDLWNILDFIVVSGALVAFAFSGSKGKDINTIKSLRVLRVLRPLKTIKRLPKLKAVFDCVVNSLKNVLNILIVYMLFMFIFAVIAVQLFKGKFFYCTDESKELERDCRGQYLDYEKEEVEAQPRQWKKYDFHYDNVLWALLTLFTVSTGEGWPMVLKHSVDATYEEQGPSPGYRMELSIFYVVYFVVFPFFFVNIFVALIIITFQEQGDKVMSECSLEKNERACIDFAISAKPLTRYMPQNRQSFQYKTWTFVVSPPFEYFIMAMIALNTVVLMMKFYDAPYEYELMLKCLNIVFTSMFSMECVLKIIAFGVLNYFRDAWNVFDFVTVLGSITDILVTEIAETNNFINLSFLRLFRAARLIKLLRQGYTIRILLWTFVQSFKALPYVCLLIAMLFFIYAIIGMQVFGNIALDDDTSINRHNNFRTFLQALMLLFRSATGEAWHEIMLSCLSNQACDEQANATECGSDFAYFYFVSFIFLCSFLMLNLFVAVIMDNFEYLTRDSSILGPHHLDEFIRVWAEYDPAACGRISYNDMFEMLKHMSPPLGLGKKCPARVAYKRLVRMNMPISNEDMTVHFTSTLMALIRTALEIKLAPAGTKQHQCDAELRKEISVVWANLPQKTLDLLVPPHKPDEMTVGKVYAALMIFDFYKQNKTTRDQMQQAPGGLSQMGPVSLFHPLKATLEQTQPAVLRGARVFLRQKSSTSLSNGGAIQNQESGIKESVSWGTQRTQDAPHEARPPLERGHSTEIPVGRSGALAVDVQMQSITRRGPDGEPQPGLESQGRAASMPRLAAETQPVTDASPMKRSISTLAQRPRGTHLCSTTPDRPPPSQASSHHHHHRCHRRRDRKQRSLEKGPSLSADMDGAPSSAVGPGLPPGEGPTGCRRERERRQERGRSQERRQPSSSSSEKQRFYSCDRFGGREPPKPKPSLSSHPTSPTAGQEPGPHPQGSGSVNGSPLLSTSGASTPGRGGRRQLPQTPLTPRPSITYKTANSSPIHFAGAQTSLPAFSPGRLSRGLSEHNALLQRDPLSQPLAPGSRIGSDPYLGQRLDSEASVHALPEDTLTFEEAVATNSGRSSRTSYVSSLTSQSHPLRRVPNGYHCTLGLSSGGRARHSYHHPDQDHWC
T1 sequence (Q02410 whole entry): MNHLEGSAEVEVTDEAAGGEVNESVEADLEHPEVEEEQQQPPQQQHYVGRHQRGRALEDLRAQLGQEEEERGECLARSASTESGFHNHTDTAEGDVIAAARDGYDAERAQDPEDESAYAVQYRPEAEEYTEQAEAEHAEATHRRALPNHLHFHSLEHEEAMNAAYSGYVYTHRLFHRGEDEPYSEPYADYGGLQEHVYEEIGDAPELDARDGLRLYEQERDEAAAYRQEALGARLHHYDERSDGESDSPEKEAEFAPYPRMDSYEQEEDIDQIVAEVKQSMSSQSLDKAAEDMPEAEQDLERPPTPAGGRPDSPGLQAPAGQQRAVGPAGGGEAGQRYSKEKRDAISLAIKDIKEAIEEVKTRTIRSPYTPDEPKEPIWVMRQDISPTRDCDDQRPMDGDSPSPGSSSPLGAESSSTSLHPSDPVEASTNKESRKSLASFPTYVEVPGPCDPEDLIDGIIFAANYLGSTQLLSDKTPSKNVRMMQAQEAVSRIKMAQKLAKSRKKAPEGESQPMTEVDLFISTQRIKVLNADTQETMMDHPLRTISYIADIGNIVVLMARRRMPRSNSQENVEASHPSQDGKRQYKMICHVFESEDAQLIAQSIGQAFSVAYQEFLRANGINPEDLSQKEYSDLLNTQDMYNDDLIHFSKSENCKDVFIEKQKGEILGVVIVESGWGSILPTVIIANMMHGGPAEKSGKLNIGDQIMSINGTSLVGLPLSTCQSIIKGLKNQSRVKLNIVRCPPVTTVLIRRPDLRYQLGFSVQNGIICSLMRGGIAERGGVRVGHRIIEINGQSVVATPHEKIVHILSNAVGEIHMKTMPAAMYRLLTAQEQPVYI

## COc1cc(NC(=O)c2cccs2)ccc1NC(=O)c1cc2ccccc2o1
[1]
  IC50: > 50 µM (inactive)
[2]
  IC50: 11.2 µM (active)

## O=S(=O)(Nc1cccc2cccnc12)c1ccc(S(=O)(=O)N2CCCC2)cc1
[3]
  EC50: > 32 µM (inactive)
[4]
  EC50: 4.29 µM (active)
Mu-type opioid receptor
  EC50: > 32 µM (inactive)
[5]
  IC50: > 32 µM
[6]
  EC50: 5.05 µM (active)
[7]
  EC50: 17.2 µM (active)
[8]
  EC50: 2.33 µM (active)
[9]
  IC50: 8.52 µM (active)
[10]
  IC50: > 32 µM (inactive)
[11]
  AC50: 110 µM (active)
Beta-galactosidase
  EC50: > 31.5 µM (inactive)

## COc1ccc(/C=C/c2nnc(NC(=O)CSc3ccc(C)cc3)s2)cc1
[12]
  CC50: > 40 µM (active)
SUMO-activating enzyme
  IC50: > 100 µM (inactive)

## CC1CN(Cc2c(O)ccc3c2oc(=O)c2ccccc23)CC(C)O1 (stereo not drawn)
[13]
  IC50: 2.68 µM (active)
[14]
  AC50: 0.95 µM (active)
[15]
  IC50: 3.06 µM (not active)

## Cc1cccc2nc(CSc3nc4ccccc4[nH]3)cn12
[16]
  IC50: > 100 µM (inactive)

## COC(=O)c1ccc(CSc2nc(O)c3c(C)c(C(=O)O)sc3n2)cc1
[14]
  AC50: 10.6 µM (active)

## NC(=O)c1nsc(C(=O)N(c2ccccc2F)C(C(=O)NCc2ccccc2)c2ccc(O)cc2)c1N (stereo not drawn)
H9c2
  IC50: > 79 µM (inactive)
CAAX prenyl protease 2
  AC50: 13.8 µM (active)
Trypsin
  AC50: 12 µM (active)

## NC1=C(c2nc(-c3ccc(Cl)cc3)cs2)C(=O)CN1NC(=O)c1ccc(O)cc1
[1]
  IC50: > 50 µM (inactive)
[17]
  EC50: > 120 µM (not active)
H4
  EC50: 94.6 µM (active)
[2]
  IC50: 7.51 µM (active)
[18]
  EC50: 9.72 µM (active)

## NC1(C(Cl)(Cl)Cl)Oc2cc(Cl)c(Cl)cc2O1
[16]
  IC50: > 100 µM (inactive)

## NS(=O)(=O)c1ccc(NC(=S)NC2CCN(Cc3ccccc3)CC2)cc1
[19]
  IC50: > 100 µM (inactive)

## O=C(CC1SC(N/N=C/C=C/c2ccccc2)=NC1=O)Nc1ccc(Cl)c(Cl)c1 (stereo not drawn)
SUMO-activating enzyme
  IC50: 34.6 µM (active)
[20]
  EC50: > 53 µM (inactive)
[21]
  IC50: > 47.1 µM (inactive)

## C/C(=N\NC(=O)C1COc2ccccc2O1)c1ccccn1 (stereo not drawn)
[22]
  AC50: 4.49 µM (active)
[5]
  IC50: > 32 µM
Nonstructural protein 1
  IC50: 5.62 µM (active)
[9]
  IC50: 6.93 µM (active)
Beta-galactosidase
  EC50: > 31.5 µM (inactive)
